Experimental data reported in patent US20130289070A1, “Use of Levocabastine for Modulating Generation of Pro-Inflammatory Cytokines” (Bausch & Lomb Incorporated, priority 2007, published 2013).

System: EoL-1 (human eosinophilic leukaemia cell line) cells
Experiment: TNF-α-induced cytokine release, EoL-1 cells differentiated with PMA (Luminex)
Type: cell-based
Parameters: key to IL-1α (PMA), p of decrement / IL-1β (PMA), p of decrement / IL-1ra (PMA), p of decrement / IL-5 (PMA), p of decrement / IL-7 (PMA), p of decrement / IL-8 (PMA), p of decrement / IP-10 (PMA), p of decrement / MCP-1 (PMA), p of decrement / MIP-1β (PMA), p of decrement / RANTES (PMA), p of decrement / VEGF (PMA), p of decrement / Fractalkine (PMA), p of decrement / MIP-1α (PMA), p of decrement: ns = non significant
Procedure: EoL-1 (human eosinophilic leukaemia cell line) cells (Saito et al., 1985; Mayumi, 1992) were maintained in RPMI-1640 medium with L-glutamine supplemented with 10% (v/v) FBS at 37° C. in a humidified atmosphere with 5% CO2. Where indicated, 24 h before the experiment 25 ng/mL PMA ((phorbol 12-myristate 13-acetate, purchased from Sigma Aldrich) was added to the medium to induce eosinophil granulation and differentiation (Ohtsu et al., 1993; Zimmermann et al., 2000).
Half-million cells were aliquoted per point in a 24 well plate; each experiment was performed in triplicate and carried out in parallel with eosinophils differentiated and non differentiated with PMA (25 ng/mL, 24 h). Cells were suspended in low serum medium (RPMI-1640, 0.1% (v/v) FBS). TNF-α was used to induce cytokine secretion as previously described by Steube et al. (2000), and the net release was obtained by comparison to the basal (non-TNF-α treated). In the first experiment we evaluated the concentration and time relation between TNF-α stimulation and cytokine release. Therefore, 5, 10, and 25 ng/mL of TNF-α was administered to the cells at 0, ½, 1, 2, 3, 6, 12 and 24 h (data not shown). An aliquot of 150 μL of supernate was collected for cytokines' analysis. […] Differentiated and non-differentiated EoL-1 cells were exposed from 0.1 to 2.3 mM levocabastine ([…]Levocabastine 0.05% solution eye drops containing cyclodextrins, without benzalkonium chloride), and aliquots of the supernates were collected after 12 and 24 h. The content of cytokines at time zero was estimated by treating the cells with 400 nM calcimycin (A-23187), which is a cytolytic agent that frees all the mediators from the cytoplasmic compartment. In addition, for each experiment we tested the effect of the vehicle, which was added to the wells in a concentration equal to the maximum amount used for drug dilution.
Samples (supernates 12 and 24 h) in triplicate were analyzed using Luminex 200™ (Luminex, Austin, Tex.) and Beadview software v1.0 (Upstate Cell Signaling Solutions, Temecula, Calif.).
All data are presented as mean±SEM for the indicated number of experiments. Statistical significance was determined by Newman-Keuls test after ANOVA using GraphPad Prism (version 3.0; GraphPad Software Inc., San Diego, Calif., USA). P-values<0.05 were considered to be significant.

[1] = 12 h, TNF-α 5 ng + Levocabastine 2 mM vs TNF-α
[2] = 12 h, TNF-α 10 ng + Levocabastine 2 mM vs TNF-α
[3] = 12 h, TNF-α 20 ng + Levocabastine 2 mM vs TNF-α
[4] = 12 h, TNF-α 5, 10, 20 ng + Levocabastine 2 mM vs TNF-α
[5] = 24 h, FN + Levocabastine 2 mM vs FN
[6] = 24 h, Levocabastine 2 mM vs TNF-α

C[C@@H]1CN([C@H]2CC[C@](C#N)(c3ccc(F)cc3)CC2)CC[C@]1(C(=O)O)c1ccccc1 [Levocabastine, levocabastine]
p < 0.001: IL-1ra (PMA), p of decrement (12 h, TNF-α vs Lev 0.5 mM) | IL-1ra (PMA), p of decrement (12 h, TNF-α vs Lev 1.0 mM)
cytokine secretion p < 0.001: MIP-1α (PMA), p of increase (12 h, TNF-α vs Lev 0.1-2.3 mM)
concentration dependent increase of: MIP-1α (PMA), change of secretion (12 h, TNF-α vs Lev 0.1-2.3 mM)
increase of cytokine secretion: IL-1ra (PMA), p of decrement [4] | IL-1α (PMA), p of decrement [4] | MIP-1β (PMA), p of decrement [4] | RANTES (PMA), p of decrement [4]
P < 0.001: IL-12p40 (PMA), p of decrement [1] | IL-12p40 (PMA), p of decrement [2] | IL-12p40 (PMA), p of decrement [3] | VEGF (PMA), p of decrement [5]
Increase: Fractalkine (PMA), p of decrement [5] | G-CSF (PMA), p of decrement [5] | IL-1ra (PMA), p of decrement [5] | IL-1α (PMA), p of decrement [5] | IL-7 (PMA), p of decrement [5] | IL-8 (PMA), p of decrement [5] | MCP-1 (PMA), p of decrement [5] | MIP-1α (PMA), p of decrement [5] | MIP-1β (PMA), p of decrement [5] | RANTES (PMA), p of decrement [5] | IL-1ra (PMA), p of decrement [6] | IL-1α (PMA), p of decrement [6] | IL-8 (PMA), p of decrement [6]
p < 0.05: IP-10 (PMA), p of decrement (12 h, TNF-α vs Lev 1.0 mM) | VEGF (PMA), p of decrement (12 h, TNF-α vs Lev 1.0 mM)
p < 0.01: IL-1ra (PMA), p of decrement (12 h, TNF-α vs Lev 0.1 mM) | IP-10 (PMA), p of decrement (12 h, TNF-α vs Lev 0.5 mM) | VEGF (PMA), p of decrement (12 h, TNF-α vs Lev 2.3 mM)
capable of reducing the release: release of IL-8 induced by TNF-α (2 mM, TNF-α 5, 10 and 20 ng, 24 h, differentiated with PMA (FIG. 9))
ns: Fractalkine (PMA), p of decrement [1] | G-CSF (PMA), p of decrement [1] | GM-CSF (PMA), p of decrement [1] | IL-1β (PMA), p of decrement [1] | IL-5 (PMA), p of decrement [1] | IL-6 (PMA), p of decrement [1] | IL-7 (PMA), p of decrement [1] | IL-8 (PMA), p of decrement [1] | IL-10 (PMA), p of decrement [1] | IP-10 (PMA), p of decrement [1] | MCP-1 (PMA), p of decrement [1] | MIP-1α (PMA), p of decrement [1] | TGF-α (PMA), p of decrement [1] | Fractalkine (PMA), p of decrement [2] | G-CSF (PMA), p of decrement [2] | GM-CSF (PMA), p of decrement [2] | IL-1β (PMA), p of decrement [2] | IL-5 (PMA), p of decrement [2] | IL-6 (PMA), p of decrement [2] | IL-7 (PMA), p of decrement [2] | IL-8 (PMA), p of decrement [2] | IL-10 (PMA), p of decrement [2] | IP-10 (PMA), p of decrement [2] | MCP-1 (PMA), p of decrement [2] | MIP-1α (PMA), p of decrement [2] | TGF-α (PMA), p of decrement [2] | VEGF (PMA), p of decrement [2] | Fractalkine (PMA), p of decrement [3] | G-CSF (PMA), p of decrement [3] | GM-CSF (PMA), p of decrement [3] | IL-1β (PMA), p of decrement [3] | IL-5 (PMA), p of decrement [3] | IL-6 (PMA), p of decrement [3] | IL-7 (PMA), p of decrement [3] | IL-8 (PMA), p of decrement [3] | IL-10 (PMA), p of decrement [3] | IP-10 (PMA), p of decrement [3] | MCP-1 (PMA), p of decrement [3] | MIP-1α (PMA), p of decrement [3] | TGF-α (PMA), p of decrement [3] | VEGF (PMA), p of decrement [3] | Fractalkine (PMA), p of decrement (12 h, TNF-α vs Lev 0.1 mM) | IL-1α (PMA), p of decrement (12 h, TNF-α vs Lev 0.1 mM) | IL-1β (PMA), p of decrement (12 h, TNF-α vs Lev 0.1 mM) | IL-5 (PMA), p of decrement (12 h, TNF-α vs Lev 0.1 mM) | IL-7 (PMA), p of decrement (12 h, TNF-α vs Lev 0.1 mM) | IL-8 (PMA), p of decrement (12 h, TNF-α vs Lev 0.1 mM) | IP-10 (PMA), p of decrement (12 h, TNF-α vs Lev 0.1 mM) | MCP-1 (PMA), p of decrement (12 h, TNF-α vs Lev 0.1 mM) | MIP-1β (PMA), p of decrement (12 h, TNF-α vs Lev 0.1 mM) | RANTES (PMA), p of decrement (12 h, TNF-α vs Lev 0.1 mM) | VEGF (PMA), p of decrement (12 h, TNF-α vs Lev 0.1 mM) | Fractalkine (PMA), p of decrement (12 h, TNF-α vs Lev 0.5 mM) | IL-1α (PMA), p of decrement (12 h, TNF-α vs Lev 0.5 mM) | IL-1β (PMA), p of decrement (12 h, TNF-α vs Lev 0.5 mM) | IL-5 (PMA), p of decrement (12 h, TNF-α vs Lev 0.5 mM) | IL-7 (PMA), p of decrement (12 h, TNF-α vs Lev 0.5 mM) | IL-8 (PMA), p of decrement (12 h, TNF-α vs Lev 0.5 mM) | MCP-1 (PMA), p of decrement (12 h, TNF-α vs Lev 0.5 mM) | MIP-1β (PMA), p of decrement (12 h, TNF-α vs Lev 0.5 mM) | RANTES (PMA), p of decrement (12 h, TNF-α vs Lev 0.5 mM) | VEGF (PMA), p of decrement (12 h, TNF-α vs Lev 0.5 mM) | Fractalkine (PMA), p of decrement (12 h, TNF-α vs Lev 1.0 mM) | IL-1α (PMA), p of decrement (12 h, TNF-α vs Lev 1.0 mM) | IL-1β (PMA), p of decrement (12 h, TNF-α vs Lev 1.0 mM) | IL-5 (PMA), p of decrement (12 h, TNF-α vs Lev 1.0 mM) | IL-7 (PMA), p of decrement (12 h, TNF-α vs Lev 1.0 mM) | IL-8 (PMA), p of decrement (12 h, TNF-α vs Lev 1.0 mM) | MCP-1 (PMA), p of decrement (12 h, TNF-α vs Lev 1.0 mM) | MIP-1β (PMA), p of decrement (12 h, TNF-α vs Lev 1.0 mM) | RANTES (PMA), p of decrement (12 h, TNF-α vs Lev 1.0 mM) | Fractalkine (PMA), p of decrement (12 h, TNF-α vs Lev 2.3 mM) | IL-1ra (PMA), p of decrement (12 h, TNF-α vs Lev 2.3 mM) | IL-1α (PMA), p of decrement (12 h, TNF-α vs Lev 2.3 mM) | IL-1β (PMA), p of decrement (12 h, TNF-α vs Lev 2.3 mM) | IL-5 (PMA), p of decrement (12 h, TNF-α vs Lev 2.3 mM) | IL-7 (PMA), p of decrement (12 h, TNF-α vs Lev 2.3 mM) | IL-8 (PMA), p of decrement (12 h, TNF-α vs Lev 2.3 mM) | IP-10 (PMA), p of decrement (12 h, TNF-α vs Lev 2.3 mM) | MCP-1 (PMA), p of decrement (12 h, TNF-α vs Lev 2.3 mM) | MIP-1β (PMA), p of decrement (12 h, TNF-α vs Lev 2.3 mM) | RANTES (PMA), p of decrement (12 h, TNF-α vs Lev 2.3 mM) | GM-CSF (PMA), p of decrement [5] | IL-1β (PMA), p of decrement [5] | IL-5 (PMA), p of decrement [5] | IL-6 (PMA), p of decrement [5] | IL-10 (PMA), p of decrement [5] | IP-10 (PMA), p of decrement [5] | TGF-α (PMA), p of decrement [5] | Fractalkine (PMA), p of decrement [6] | G-CSF (PMA), p of decrement [6] | GM-CSF (PMA), p of decrement [6] | IL-1β (PMA), p of decrement [6] | IL-5 (PMA), p of decrement [6] | IL-6 (PMA), p of decrement [6] | IL-7 (PMA), p of decrement [6] | IL-10 (PMA), p of decrement [6]
P < 0.01: VEGF (PMA), p of decrement [1] | IL-12p40 (PMA), p of decrement [5]
capable to prevent the release: release of IL-1-ra induced by TNF-α (0.1, 0.5 and 1.0 mM, 12 h, differentiated with PMA (FIG. 2)) | release of IL-1β induced by TNF-α (0.1, 0.5 and 1.0 mM, 12 h, differentiated with PMA (FIG. 3))
